# PubChem BioAssay AID1745844 (Carcinogenic Potency Database (CPDB), 2022)
# Values joined by “and” are separate entries in the source; they are usually repeats but may differ in a detail not shown here. Equal entries are not always repeated. Active and inactive are the calls of the source. How the calls were made is not given here.
# Tested on: rodent lifetime carcinogenesis bioassay, tumor incidence TD50
# Test: chronic cancer bioassays in animals – CPDB, compiled studies (AID 1745844)
smiles,measurement,setting,value
CCN(N=O)C(N)=O,TD50,"rat, strain F344/DuCrj, females, in drinking water, site: all sites, lesion: mononuclear-cell leukemia, dosed 103 weeks, study length 111 weeks",0.151 mg/kg/day
same,TD50,"rat, strain F344/DuCrj, females, in drinking water, site: any site (literature study), lesion: several types, types named in the paper, dosed 103 weeks, study length 111 weeks",0.0687 mg/kg/day
same,TD50,"rat, strain F344/DuCrj, females, in drinking water, site: brain, lesion: several types, types named in the paper, dosed 103 weeks, study length 111 weeks",0.904 mg/kg/day
same,TD50,"rat, strain F344/DuCrj, females, in drinking water, site: digestive tract, lesion: several types, types named in the paper, dosed 103 weeks, study length 111 weeks",2.56 mg/kg/day
same,TD50,"rat, strain F344/DuCrj, females, in drinking water, site: duodenum, lesion: several types, types named in the paper, dosed 103 weeks, study length 111 weeks",7.68 mg/kg/day
same,TD50,"rat, strain F344/DuCrj, females, in drinking water, site: mammary gland, lesion: adenocarcinoma, dosed 103 weeks, study length 111 weeks",2.54 mg/kg/day
same,TD50,"rat, strain F344/DuCrj, females, in drinking water, site: thyroid follicle, lesion: papillary adenoma, dosed 103 weeks, study length 111 weeks",8.7 mg/kg/day
same,TD50,"rat, strain F344/DuCrj, females, in drinking water, site: uterus, endometrium, lesion: sarcoma, dosed 103 weeks, study length 111 weeks",2.56 mg/kg/day
same,TD50,"rat, strain F344/DuCrj, females, in drinking water, site: uterus, lesion: adenoma, dosed 103 weeks, study length 111 weeks",4.08 mg/kg/day
same,TD50,"rat, strain F344/DuCrj, females, in drinking water, site: uterus, lesion: endometrial stromal polyp, dosed 103 weeks, study length 111 weeks",0.883 mg/kg/day
same,TD50,"rat, strain F344/DuCrj, males, in drinking water, site: any site (literature study), lesion: several types, types named in the paper, dosed 99 weeks, study length 111 weeks",0.025 mg/kg/day
same,TD50,"rat, strain F344/DuCrj, males, in drinking water, site: brain, lesion: several types, types named in the paper, dosed 99 weeks, study length 111 weeks",0.997 mg/kg/day
same,TD50,"rat, strain F344/DuCrj, males, in drinking water, site: digestive tract, lesion: several types, types named in the paper, dosed 99 weeks, study length 111 weeks",1.15 mg/kg/day
same,TD50,"rat, strain F344/DuCrj, males, in drinking water, site: duodenum, lesion: several types, types named in the paper, dosed 99 weeks, study length 111 weeks",31.2 mg/kg/day
same,TD50,"rat, strain F344/DuCrj, males, in drinking water, site: liver, lesion: neoplastic nodule, dosed 99 weeks, study length 111 weeks",16.4 mg/kg/day
same,TD50,"rat, strain F344/DuCrj, males, in drinking water, site: lung, lesion: adenocarcinoma, dosed 99 weeks, study length 111 weeks",2 mg/kg/day
same,TD50,"rat, strain F344/DuCrj, males, in drinking water, site: lung, lesion: adenoma, dosed 99 weeks, study length 111 weeks",0.518 mg/kg/day
same,TD50,"rat, strain F344/DuCrj, males, in drinking water, site: mammary gland, lesion: fibroma, dosed 99 weeks, study length 111 weeks",0.889 mg/kg/day
same,TD50,"rat, strain F344/DuCrj, males, in drinking water, site: peripheral nervous system, lesion: several types, types named in the paper, dosed 99 weeks, study length 111 weeks",10.2 mg/kg/day
same,TD50,"rat, strain F344/DuCrj, males, in drinking water, site: peritoneum, lesion: mesothelioma, dosed 99 weeks, study length 111 weeks",0.109 mg/kg/day
same,TD50,"rat, strain F344/DuCrj, males, in drinking water, site: subcutaneous tissue, lesion: fibroma, dosed 99 weeks, study length 111 weeks",2.42 mg/kg/day
same,TD50,"rat, strain F344/DuCrj, males, in drinking water, site: thyroid follicle, lesion: papillary adenocarcinoma, dosed 99 weeks, study length 111 weeks",8.53 mg/kg/day
same,TD50,"rat, strain F344/DuCrj, males, in drinking water, site: thyroid follicle, lesion: papillary adenoma, dosed 99 weeks, study length 111 weeks",3.9 mg/kg/day
S=P(N1CC1)(N1CC1)N1CC1,TD50,"mouse, strain B6C3F1, females, i.p., site: all sites, lesion: lymphocytic leukemia + lymphoma, dosed 47 weeks, study length 86 weeks",0.216 mg/kg/day and 0.21 mg/kg/day
same,TD50,"mouse, strain B6C3F1, females, i.p., site: any site (literature study), lesion: several types, types named in the paper, dosed 47 weeks, study length 86 weeks",0.0855 mg/kg/day
same,TD50,"mouse, strain B6C3F1, females, i.p., site: liver, lesion: hepatocellular adenoma + hepatocellular carcinoma + neoplastic nodule, dosed 47 weeks, study length 86 weeks",1.12 mg/kg/day
same,TD50,"mouse, strain B6C3F1, females, i.p., site: lung, lesion: alveolar/bronchiolar adenoma + alveolar/bronchiolar carcinoma, dosed 47 weeks, study length 86 weeks",0.408 mg/kg/day
same,TD50,"mouse, strain B6C3F1, females, i.p., site: lung, lesion: alveolar/bronchiolar adenoma, dosed 47 weeks, study length 86 weeks",0.408 mg/kg/day
same,TD50,"mouse, strain B6C3F1, males, i.p., site: all sites, lesion: leukemia + lymphocytic leukemia + lymphoma, dosed 52 weeks, study length 83 weeks",0.241 mg/kg/day
same,TD50,"mouse, strain B6C3F1, males, i.p., site: all sites, lesion: leukemia + lymphoma, dosed 52 weeks, study length 83 weeks",0.241 mg/kg/day and 0.238 mg/kg/day
same,TD50,"mouse, strain B6C3F1, males, i.p., site: all sites, lesion: lymphocytic leukemia + lymphoma, dosed 52 weeks, study length 83 weeks",0.265 mg/kg/day and 0.262 mg/kg/day
same,TD50,"mouse, strain B6C3F1, males, i.p., site: all sites, lesion: squamous-cell carcinoma, dosed 52 weeks, study length 83 weeks",0.102 mg/kg/day
same,TD50,"mouse, strain B6C3F1, males, i.p., site: any site (literature study), lesion: several types, types named in the paper, dosed 52 weeks, study length 83 weeks",0.069 mg/kg/day
same,TD50,"mouse, strain B6C3F1, males, i.p., site: liver, lesion: hepatocellular adenoma + hepatocellular carcinoma + neoplastic nodule, dosed 52 weeks, study length 83 weeks",1.12 mg/kg/day
same,TD50,"mouse, strain B6C3F1, males, i.p., site: lung, lesion: alveolar/bronchiolar adenoma + alveolar/bronchiolar carcinoma, dosed 52 weeks, study length 83 weeks",0.584 mg/kg/day
same,TD50,"mouse, strain B6C3F1, males, i.p., site: preputial gland, lesion: squamous-cell carcinoma, dosed 52 weeks, study length 83 weeks",0.3 mg/kg/day
same,TD50,"mouse, strain B6C3F1, males, i.p., site: skin, lesion: squamous-cell carcinoma, dosed 52 weeks, study length 83 weeks",0.28 mg/kg/day
same,TD50,"rat, strain BR 46, males, i.v., site: any site (literature study), lesion: benign tumor, dosed 52 weeks, study length 104 weeks",0.646 mg/kg/day
same,TD50,"rat, strain BR 46, males, i.v., site: any site (literature study), lesion: malignant tumor, dosed 52 weeks, study length 104 weeks",0.303 mg/kg/day
same,TD50,"rat, strain BR 46, males, i.v., site: any site (literature study), lesion: several types, types named in the paper, dosed 52 weeks, study length 104 weeks",0.186 mg/kg/day
same,TD50,"rat, strain Sprague-Dawley, females, i.p., site: any site (literature study), lesion: several types, types named in the paper, dosed 36 weeks, study length 81 weeks",0.0404 mg/kg/day
same,TD50,"rat, strain Sprague-Dawley, females, i.p., site: brain + nasal cavity, lesion: olfactory neuroblastoma + carcinoma, NOS, dosed 36 weeks, study length 81 weeks",0.819 mg/kg/day
same,TD50,"rat, strain Sprague-Dawley, females, i.p., site: ear canal + skin, lesion: squamous-cell carcinoma, dosed 36 weeks, study length 79 weeks",0.214 mg/kg/day
same,TD50,"rat, strain Sprague-Dawley, females, i.p., site: ear canal + skin, lesion: squamous-cell carcinoma, dosed 36 weeks, study length 81 weeks",0.217 mg/kg/day
same,TD50,"rat, strain Sprague-Dawley, females, i.p., site: ear canal, lesion: squamous-cell carcinoma, dosed 36 weeks, study length 79 weeks",0.327 mg/kg/day
same,TD50,"rat, strain Sprague-Dawley, females, i.p., site: mammary gland, lesion: adenocarcinoma, NOS, dosed 36 weeks, study length 79 weeks",0.182 mg/kg/day
same,TD50,"rat, strain Sprague-Dawley, females, i.p., site: uterus, lesion: adenocarcinoma, NOS, dosed 36 weeks, study length 79 weeks",0.236 mg/kg/day
same,TD50,"rat, strain Sprague-Dawley, females, i.p., site: uterus, lesion: adenocarcinoma, NOS, dosed 36 weeks, study length 81 weeks",0.243 mg/kg/day
same,TD50,"rat, strain Sprague-Dawley, males, i.p., site: all sites, lesion: leukemia + lymphoma, dosed 32 weeks, study length 79 weeks",0.224 mg/kg/day
same,TD50,"rat, strain Sprague-Dawley, males, i.p., site: all sites, lesion: leukemia, dosed 32 weeks, study length 79 weeks",0.29 mg/kg/day
same,TD50,"rat, strain Sprague-Dawley, males, i.p., site: all sites, lesion: leukemia, dosed 32 weeks, study length 82 weeks",0.312 mg/kg/day
same,TD50,"rat, strain Sprague-Dawley, males, i.p., site: all sites, lesion: lymphocytic leukemia, dosed 32 weeks, study length 79 weeks",0.374 mg/kg/day
same,TD50,"rat, strain Sprague-Dawley, males, i.p., site: any site (literature study), lesion: several types, types named in the paper, dosed 32 weeks, study length 82 weeks",0.0332 mg/kg/day
same,TD50,"rat, strain Sprague-Dawley, males, i.p., site: brain + nasal cavity, lesion: neuroblastoma + olfactory neuroblastoma + carcinoma, NOS, dosed 32 weeks, study length 82 weeks",0.285 mg/kg/day
same,TD50,"rat, strain Sprague-Dawley, males, i.p., site: ear canal + skin, lesion: squamous-cell carcinoma, dosed 32 weeks, study length 79 weeks",0.122 mg/kg/day
same,TD50,"rat, strain Sprague-Dawley, males, i.p., site: skin, lesion: squamous-cell carcinoma, dosed 32 weeks, study length 79 weeks",0.155 mg/kg/day
same,TD50,"rat, strain Sprague-Dawley, males, i.p., site: subcutaneous tissue, lesion: sarcoma, NOS, dosed 32 weeks, study length 79 weeks",0.22 mg/kg/day
CC1=NN(c2ccccc2)C(=O)C1,carcinogen call,"mouse, strain B6C3F1, females, in feed, site: any site (literature study), lesion: several types, types named in the paper, dosed 102 weeks, study length 104 weeks",negative (inactive)
same,carcinogen call,"mouse, strain B6C3F1, males, in feed, site: any site (literature study), lesion: several types, types named in the paper, dosed 102 weeks, study length 104 weeks",negative (inactive)
same,carcinogen call,"rat, strain Fischer 344, females, in feed, site: any site (literature study), lesion: several types, types named in the paper, dosed 103 weeks, study length 105 weeks",negative (inactive)
same,carcinogen call,"rat, strain Fischer 344, males, in feed, site: any site (literature study), lesion: several types, types named in the paper, dosed 103 weeks, study length 105 weeks",negative (inactive)
same,TD50,"rat, strain Fischer 344, males, in feed, site: liver, lesion: hepatocellular adenoma + hepatocellular carcinoma + neoplastic nodule, dosed 103 weeks, study length 105 weeks",3700 mg/kg/day
